This note sets out measurements from US7056938B1, “Method for scavenging radicals with urocanic acid, derivatives and analogues” (Academisch Ziekenhuis Bij De Univ., priority 1999, dated 2006).

SMILES strings stand for the structures.

The series in a line: photooxidation of UCA with hydrogen peroxide under UV irradiation (HPLC). The class given is physicochemical. To be noted: for YIELD OF PHOTOOXIDATION PRODUCTS: sum of 8 major peaks; for PHOTOISOMERIZATION cis-UCA / PHOTOISOMERIZATION trans-UCA: trans-UCA starting material. On the procedure:
Trans-UCA and cis-UCA were separated from each other and from several UCA oxidation products on a 4.6×250 mm Alltima C18 and Luna C18 reversed-phase column (Alitech, Deerfield, Ill. and Phenomenex, Torrence, Calif., resp.) with a flow of 0.8 mL/min, delivered by P-3500 HPLC-pumps (Pharmacia, Uppsala, Sweden). Samples of 20 to 200 μL were injected by a Promis II autosampler (Spark Holland, Emmen, The Netherlands) and chromatographic data were recorded on an SP 4270 integrator (Spectra Physics, San Jose, Calif.). Peak area data from samples were only processed under identical HPLC circumstances. A UV-detector (Applied Biosystems, model 759A, Foster City, Calif.) was set for 226 nm detection. Isocratic elution was performed with 10 mM ammonium formate buffer, containing 0.2–0.8 mM tetrabutylammonium(TBA)formate and 1% acetonitrile (pH 7.2). Collected fractions were acidified with formic acid up to a final concentration of 100 mM and passed through C18 could phase extraction columns (J T Baker, Deventer, The Netherlands) in order to remove TBA.
A 1-cm quartz cuvette, filled with 1.4 mL sample, was placed in the parallel beam of a filtered 1000 W Xenon are lamp (Oriel, Stratford, Conn.). The samples were magnetically stirred during irradiation. To minimize infrared (heat) and visible radiation, the beam was passed through a water filter (7 cm), reflected by a dichroic mirror and filtered through a 1=mm UG11 filter. Short wave cut off was achieved by passing the beam through WG280, WG305 or WG335 filters with 3 mm thickness each (Schott-Jena, Mainz, Germany). Xenon lamp emission filtered through WG280 included UV-C, UV-B and UV-A; through WG305 UV-B and UV-A and through WG335 only UV-A was included. Two narrow bands in the UV-B and UV-A spectral regions were selected to monitor the xenon-arc emission. The probe of a calibrated EG&G 550 radiometer (Salem, Mass., USA) was equipped with a neutral density filter and narrow band filter type UV-M-IL (Schott-Jena) with a transmission maximum of 21% at 303 nm and a half-width of 11.5 nm to monitor UV-B or with a type UV-PIL (Schott-Jena) with a transmission maximum of 46% at 363 nm and a half-width of 7.7 nm to monitor UV-A. Transmission spectra of the optical filters were checked on a Perkin Elmer Lambda 40 UV/VIS spectrometer (Norwalk, Conn., USA).
Additional irradiations were performed with fluorescent tubes TLI2, used as a UV-B source, and TL10R, used as a UV-A source (Philips, Eindhoven, The Netherlands), on samples that were magnetically stirred in small Petri dishes. The UV-B output was measured with an IL 443 phototherapy radiometer, fitted with a SEE 1240 silicon detector probe and the UV-A output with an IL 442A phototherapy radiometer with a SEE 115 detector probe (International Light, Newburyport, Mass., USA).
The O—O bond of hydrogen peroxide can be cleaved by UV radiation to yield hydroxyl radicals. Because both UCA isomers could effectively scavenge hydroxyl radicals, it is to be expected that UCA will be degraded and/or converted into oxidation products. The ability of simulated solar UV radiation to convert trans-UCA in the presence of hydrogen peroxide into photooxidation products was tested in vitro and analyzed by reversed-phase HPLC analysis. Hydrogen peroxide eluted close to void volume and trans-UCA and cis-UCA eluted with markedly different elution times of 20 and 64 min (FIGS. 3a–d). […] Exposing 80 μM trans-UCA in the absence of hydrogen peroxide at pH 7.2 to WG280-filtered xenon-arc emission (including UV-C and UV-B) resulted only and in the formation of cis-UCA via the process of photoisomerization (FIG. 3b). […] main photooxidation products were recognized as new peaks based on retention times and were assigned in the chromatogram (FIG. 3c).
In contrast, when exposures were performed with simulated solar radiation from which both UV-C and UV-B were blocked out by a WG335 filter, virtually no photo-oxidation products were found (FIG. 3d). […]

The mark [1] stands for this setting: TL10R unfiltered, 320–440 nm, UV-B 0, UV-A 324.
The mark [2] stands for this setting: TL12 unfiltered, 280–366 nm, UV-B 3.6, UV-A 4.5.
The mark [3] stands for this setting: Xe arc W3305, 292–400 nm, UV-B 18, UV-A 70.
Where [4] appears, read: Xe arc W3335, 320–400 nm, UV-B 0, UV-A 66.
[5] abbreviates: Xe arc W3280, 270–400 nm, UV-B 37, UV-A 70.

In the case of `O=C(O)/C=C/c1cnc[nH]1` [trans-Urocanic acid, Trans-urocanic acid], the “YIELD OF PHOTOOXIDATION PRODUCTS” value reads like this: under setting [1], 16 (±5) A.U; under setting [2], 149 (±51) A.U; under setting [3], 239 (±14) A.U; under setting [4], 45 (±8) A.U; (trans-UCA 40 μM, hydrogen peroxide 500 μM, Xe arc W3280, 270–400 nm, UV-B 37, UV-A 70) 347 (±58) A.U. In addition, the “lowering of initial weight after severe photooxidation” value (extensive UCA breakdown (<4% of each UCA isomer left over)) is ~14%. Besides, the “UCA LEFT OVER” value (trans-UCA 40 μM, hydrogen peroxide 500 μM, TL10R unfiltered, 320–440 nm, UV-B 0, UV-A 324 kJ · M^−1) was 99 (±3) %; the “UCA LEFT OVER” value (trans-UCA 40 μM, hydrogen peroxide 500 μM, TL12 unfiltered, 280–366 nm, UV-B 3.6, UV-A 4.5 kJ · M^−1) was 90 (±20) %; the “UCA LEFT OVER” value (trans-UCA 40 μM, hydrogen peroxide 500 μM, Xe arc W3280, 270–400 nm, UV-C,-B,-A included, UV-B 37, UV-A 70 kJ · M^−1) was 43 (±11) %; the “UCA LEFT OVER” value (trans-UCA 40 μM, hydrogen peroxide 500 μM, Xe arc W3305, 292–400 nm, UV-B,-A included, UV-B 18, UV-A 70 kJ · M^−1) is 64 (±6) %; the “UCA LEFT OVER” value (trans-UCA 40 μM, hydrogen peroxide 500 μM, Xe arc W3335, 320–400 nm, only UV-A included, UV-B 0, UV-A 66 kJ · M^−1) was 95 (±5) %. The “PHOTOISOMERIZATION cis-UCA” value worked out at 16% under setting [1]; 59% under setting [2]; 59% under setting [5]; 53% under setting [3]; 40% under setting [4]. In addition, the “PHOTOISOMERIZATION trans-UCA” value is, setting by setting: under setting [1], 84 (±7) %; under setting [2], 41 (±4) %; under setting [5], 43 (±2) %; under setting [3], 47 (±3) %; under setting [4], 60 (±2) %.
